In US20210024490A1, “METHOD FOR THE PREPARATION OF THE METABOLITES OF (4S)- AND (4R)-4-(4-CYANO-2-METHOXYPHENYL)-5-ETHOXY-2,8-DIMETHYL-1,4-DIHYDRO-1,6-NAPHTHYRIDINE-3-CARBOXAMIDE AND THE USE THEREOF” (Bayer Pharma Aktiengesellschaft, priority 2015, published 2021):

Key:
[1] = target: T1, human mineralocorticoid receptor (MR) (Homo sapiens, UniProt P08235); test: Cellular in vitro assay to determine the inhibitory MR activity (GAL4-steroid hormone receptor chimera, luciferase reporter, CHO K1 cells); assay type: cell-based; details: antagonism of aldosterone-stimulated GAL4-MR chimera
T1 construct: expressed in transfected cells; host or cells: CHO K1 (Chinese hamster ovary), stably transfected
T1 sequence (P08235 734-984 limits assumed): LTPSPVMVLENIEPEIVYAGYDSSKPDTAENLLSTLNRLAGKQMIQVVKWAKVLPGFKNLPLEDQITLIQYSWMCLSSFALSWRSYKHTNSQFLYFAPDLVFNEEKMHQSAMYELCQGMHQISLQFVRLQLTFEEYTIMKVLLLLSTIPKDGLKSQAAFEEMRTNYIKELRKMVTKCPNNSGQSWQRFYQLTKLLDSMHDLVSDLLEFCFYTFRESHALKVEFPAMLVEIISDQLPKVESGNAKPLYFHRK
From the text: B-1. Cellular In Vitro Assay to Determine the Inhibitory MR Activity and MR Selectivity Compared with Other Steroid Hormone Receptors
Antagonists of the human mineralocorticoid receptor (MR) are identified, and the efficacy of the compounds described herein is quantified with the aid of a recombinant cell line. The cell is originally derived from a hamster ovary epithelial cell (Chinese Hamster Ovary, CHO K1, ATCC: American Type Culture Collection, VA 20108, USA).
An established chimera system in which the ligand-binding domains of human steroid hormone receptors are fused to the DNA-binding domain of the yeast transcription factor GAL4 is used in this CHO K1 cell line. The GAL4-steroid hormone receptor chimeras produced in this way are cotransfected and stably expressed with a reporter construct in the CHO cells.
To generate the GAL4-steroid hormone receptor chimeras, the GAL4 DNA-binding domain (amino acids 1-147) from the vector pFC2dbd (from Stratagene) is cloned with the PCR-amplified ligand-binding domains of the mineralocorticoid receptor (MR, amino acids 734-985), of the glucocorticoid receptor (GR, amino acids 443-777), of the progesterone receptor (PR, amino acids 680-933) and of the androgen receptor (AR, amino acids 667-919) into the vector pIRES2 (from Clontech). […]
The MR cells are plated out in medium (Optimem, 2.5% FCS, 2 mM glutamine, 10 mM HEPES) in 96-well (or 384- or 1536-well) microliter plates the day before the assay, and are kept in a cell incubator (96% air humidity, 5% v/v CO2, 37° C.). […] After a further incubation time of 5 to 6 hours, the luciferase activity is measured with the aid of a video camera. The relative light units measured give a sigmoidal stimulation curve as a function of the substance concentration. The IC50 values (in mol) are calculated with the aid of the computer program GraphPad PRISM (Version 3.02).

[2] = design: species or system humans; details: dog, rat, mouse, human, in vivo
From the text: For pharmacokinetic measurements, standards of very high quality had to be prepared in order to be able to carry out reliable quantification. From the structural elucidation of the metabolites (via MS of the serum of various animal species and humans) obtained after administration of (4 S)-4-(4-cyano-2-methoxyphenyl)-5-ethoxy-2,8-dimethyl-1,4-dihydro-1,6-naphthyridine-3-carboxamide of the formula 4S (I), the following 6 main metabolites were found (the absolute stereochemistry of the atropisomers can be assigned according to the Cahn-Ingold-Prelog convention and is specified in parentheses):
If the R enantiomer 4R (I) is used, […]

Row | SMILES | IC50 [1] [µM] | main metabolites formed [2]
1 | CCOc1ncc(C)c2nc(C)c(C(N)=O)c(-c3ccc(C#N)cc3OC)c12 (single isomer, unassigned) [M1a (S)] | 9.33 | 
2 | CCOc1ncc(C)c2c1[C@H](c1ccc(C#N)cc1OC)C(C(N)=O)=C(C)N2 [Compound of the formula (I), (4S)-4-(4-cyano-2-methoxyphenyl)-5-ethoxy-2,8-dimethyl-1,4-dihydro-1,6-naphthyridine-3-carboxamide] | 0.0277 | metabolized mainly to M1a (S) and the subsequent metabolites M2a (S) and M3a (S)
3 | CCOc1ncc(C)c2c1[C@@H](c1ccc(C#N)cc1OC)C(C(N)=O)=C(C)N2 [4R (I), (4R)-4-(4-cyano-2-methoxyphenyl)-5-ethoxy-2,8-dimethyl-1,4-dihydro-1,6-naphthyridine-3-carboxamide] |  | the metabolites of the b series are principally formed, i.e. M1b (R), M2b (R) and M3b (R)
4 | CCOc1ncc(C)c2nc(C)c(C(N)=O)c(-c3ccc(C#N)cc3OC)c12 (single isomer, unassigned) [M1b (R)] | > 10 | 
